Data: patent publication US11291669B2, “Compositions comprising phosphoinositide 3-kinase inhibitors and a second antiproliferative agent” (Karus Therapeutics Limited, priority 2015, dated 2022)
Where two headings read alike, the source gives them in different places. Each block holds one compound with its values, some of them ahead of it.

Experiments:
[1] = Rodent pharmacokinetics, male Balb/c mouse, plasma PK; type: in vivo; conditions: for Oral Bioavailability (F): summary table, PO 10 mg/kg
Method: Animals in Group 1 were administered intravenously with Example B solution formulation in 20% Propylene Glycol, 50% of PEG 400 and 30% of (20% HPβCD in water) via tail vein at a dose of 3 mg/kg.
Animals in Group 2 were administered with oral solution formulation of Example B in 20% Propylene Glycol, 50% of PEG 400 and 30% of (20% HPβCD in water) at a dose of 10 mg/kg;
Dosing: 10 mg/kg P.O. and 3 mg/kg I.V.
Animals in Group 1 were administered intravenously with Example G solution formulation in 5% NMP, 5% solutol HS-15 in 90% HPIβCD solution (20% HPβCD in RO water) at 3 mg/kg dose.
Animals in Group 2 were administered orally with 10 mg/kg solution formulation of Example G in 5% NMP, 5% solutol HS-15 in 90% HPβCD solution (20% HPβCD in RO water)

[2] = Rodent pharmacokinetics, male CD1 mouse, plasma PK; type: in vivo; conditions: PO 10 mg/kg vs IV 5 mg/kg, read-out: F (oral bioavailability)
Method: Formulation: 10% DMSO, 90% Saline Dosing: 10 mg/kg P.O. and 5 mg/kg I.V. Plasma PK Summary: […]

SMILES: c1cc(-c2nc(N3CCOCC3)c3oc4ncc(CN5CCC56COC6)cc4c3n2)c2cc[nH]c2c1 [Example G, 4-(1H-indol-4-yl)-6-(morpholin-4-yl)-12-{6-oxa-1-azaspiro[3.3]heptan-1-ylmethyl}-8-oxa-3,5,10-triazatricyclo[7.4.0.0^2,7]trideca-1(13), 2(7), 3,5,9,11-hexaene]
Oral Bioavailability (F) [1]: 30

bioavailability ([2]; mesylate salt): 73.8%
SMILES: c1cc(-c2nc(N3CCOCC3)c3oc4ncc(CN5C[C@@H]6C[C@H]5CO6)cc4c3n2)c2cc[nH]c2c1 [Example A, 4-(1H-Indol-4-yl)-6-(morpholin-4-yl)-12-[(1S,4S)-2-oxa-5-azabicyclo[2.2.1]heptan-5-ylmethyl]-8-oxa-3,5,10-triazatricyclo[7.4.0.0^2,7]trideca-1(13),2(7),3,5,9,11-hexaene]

SMILES: c1cc(-c2nc(N3CCOCC3)c3oc4ncc(CN5CCC6(CC5)COC6)cc4c3n2)c2cc[nH]c2c1 [Example B, 4-(1H-Indol-4-yl)-6-(morpholin-4-yl)-12-{2-oxa-7-azaspiro[3.5]nonan-7-ylmethyl}-8-oxa-3,5,10-triazatricyclo[7.4.0.0^2,7]trideca-1(13),2(7),3,5,9,11-hexaene]
Clearance ([1]; IV, 3 mg/kg, mesylate salt): 33.06 mL/min/kg | Oral Bioavailability (F) [1]: 74

bioavailability ([2]; HCl salt): 29.6%
SMILES: c1cc(-c2nc(N3CCOCC3)c3oc4ncc(CN5CCCCC5)cc4c3n2)c2cc[nH]c2c1 [Example I in WO2011/021038, reference compound]
